Legend:
MESO1 cells [1] = test: MTT cell growth assay, MESO1; format: cell-based; conditions: day 2
Protocol: MESO1 or H2452 cells (2×10^3 cells/well) were inoculated to a 96-well plate. One hour later, cisplatin or pemetrexed was added thereto at 10^−9, 10^−8, 10^−7, 10^−6, 10^−5, or 10^−4 M (n=6). At day 2, MTT assay was conducted.
MESO1 cells (2×10^3 cells/well) were inoculated to a 96-well plate. One hour later, the combination of 0.3, 3, or 10 μM cisplatin and 0.1, 3, or 10 μg/ml YS110, or the combination of 0.03, 0.3, or 1 μM pemetrexed and 0.1, 3, or 10 μg/ml YS110 was added thereto. At day 2, MTT assay was conducted. Significant difference was tested by two-tailed t-test (vs Cont).
MESO1 cells (2×10^3 cells/well) or H2452 cells (2×10^3 cells/well) were inoculated to a 96-well plate. One hour later, 0.3 μM cisplatin-0.1 μM pemetrexed combination, or YS110 (10 μg/ml) plus the 0.3 μM cisplatin-0.1 μM pemetrexed combination was added thereto (n=6). At day 2, MTT assay was conducted. Significant difference was tested by two-tailed t-test (vs Cont).
Gemcitabine was studied for its effect on the growth of a mesothelioma cell line. A mesothelioma cell line MESO1, JMN, H2452, or H226 (2×10^3 cells/well) was inoculated to a 96-well plate. One hour later, gemcitabine (10^−9, 10^−8, 10^−7, 10^−6, 10^−5, or 10^−4 M) was added thereto (N=6). 2 days later, MTT assay was conducted. Significant difference was tested by two-tailed t-test (vs Cont).
MESO1 cells (2×10^3 cells/well) were inoculated to a 96-well plate. One hour later, gemcitabine (0, 10^−8, 3×10^−8, or 10^−7 M) and YS110 (0, 1, 3, or 10 μg/ml) were added thereto in combination. At day 2, MTT assay was conducted. Significant difference was tested by two-tailed t-test (vs Cont). Next, interaction in concomitant use of medications was studied (n=6). The interaction between YS110 and gemcitabine used concomitantly was analyzed by two-way ANOVA.
MESO1, JMN, H2452 or H226 cells (2×10^3 cells/well were inoculated to a 96-well plate. One hour later, 3×10^−8 M or 10^−7 M gemcitabine was added thereto by concomitant use with the combination of cisplatin (0, 0.1, 0.3, or 1 μM) and pemetrexed (0, 0.03, 0.1, or 0.3 μM) (n=6). At day 2, MTT assay was conducted.
The growth inhibitory effects of cisplatin (10^−9 to 10^−4 M) and pemetrexed (10^−9 to 10^−4 M) were compared using the MESO1 and JMN cell lines.
The growth inhibitory effect of gemcitabine (10^−9 to 10^−4 M) was compared using MESO1, H2452, JMN, and H226 cell lines.

MESO1 cells [2] = test: Boyden chamber invasion assay, MESO1; format: cell-based; conditions: cisplatin 0, 3, or 10 μM and YS110 0, 10, or 20 μg/ml; 24 hours
Protocol: MESO1 cells or H2452 cells (2.5×10^4 cells/well) were inoculated to a Boyden chamber. One hour later, cisplatin (5, 10, or 30 μM) or pemetrexed (1, 10, or 30 μM) was added thereto (n=5), followed by Boyden chamber invasion assay. 24 hours after the cell inoculation, invasive cells were stained with Diff-Quik-staining kit. Significant difference was tested by two-tailed t-test (vs Cont).
(§1) MESO1 cells or H2452 cells (2.5×10^4 cells/well) were inoculated to a Boyden chamber. One hour later, the combination of cisplatin (0, 3, or 10 μM) and pemetrexed (0, 10, or 30 μM) was added thereto (n=5), followed by Boyden chamber invasion assay. 24 hours after the cell inoculation, invasive cells were stained with Diff-Quik-staining kit. Significant difference was tested by two-tailed t-test (vs Cont).
as §1, with “MESO1” for “MESO1 cells or H2452”, “YS110” for “pemetrexed”, “20 μg/ml)” for “30 μM)”, “Cont). Next, the interaction of YS110 with cisplatin-pemetrexed concomitant use was studied. The interaction was analyzed by two-way ANOVA.” for “Cont).”

HCC4006 cells = test: In vivo growth of CD26-positive lung cancer cell line HCC4006 in SCID mice (tumor weight); conditions: YS110 10 mg/kg intraperitoneal, gefitinib 100 mg/kg oral, days 1 and 4; day 7
[3] = tested on: CD26-positive malignant mesothelioma cell line JMN; conditions: mouse, in vivo
Protocol: NOD/SCID (NOD/LtSz-scid) mice were maintained in a microisolator cage within a specific pathogen-free (SPF) facility and allowed to freely take sterilized diet and sterilized water.
1×10^7 cultured JMN cells were subcutaneously administered to 6- to 8-week-old female NOD/SCID mice. […] The same amount of PBS was administered to the control group. When a tumor became evidently visible, the tumor was excised, and its size was measured with a vernier caliper. The estimated tumor volume was determined by calculation according to the expression: π/6×L×W×W (Tomayko M M et al., Cancer Chemother Pharmacol. (1989) 24: 148-54). The statistical difference among the average tumor volumes of these groups were determined by Fisher's protected least-square differences (PLSD) multiple comparison test. Statistical analysis was conducted using SPSS software (IBM, Armonk, N.Y.).

MESO1 cells [4] = test: In vivo MESO1 cell growth in SCID mice (tumor weight); conditions: YS110 10 mg/kg, cisplatin 0.5 mg/kg, pemetrexed 50 mg/kg, intraperitoneal, days 1 and 4; tumor weight day 7
Protocol: MESO1 cells (3×10^5 cells/animal) were subcutaneously transplanted to the backs of female SCID mice. The day of transplantation was defined as day 0. YS110 (10 mg/kg) alone, cisplatin (0.5 mg/kg)-pemetrexed (50 mg/kg) used concomitantly, or YS110 (10 mg/kg) concomitantly used with the cisplatin-pemetrexed concomitant use was intraperitoneally administered to the mice twice (days 1 and 4). At day 7, their tumors were excised, and the tumor weights were measured. Significant difference was tested by two-tailed t-test (vs Cont).

H226 = test: In vivo growth of epithelioid mesothelioma cell H226 in SCID mice (tumor weight); conditions: YS110 10 mg/kg, gemcitabine 20 mg/kg, intraperitoneal, days 2 and 4; day 7
Protocol: H226 (3.8×10^5 cells/animal) was subcutaneously transplanted to the backs of female SCID mice. The day of transplantation was defined as day 0. YS110 (10 mg/kg), gemcitabine (20 mg/kg), or YS110 (10 mg/kg)+gemcitabine (20 mg/kg) was intraperitoneally administered to the mice twice (days 2 and 4) (n=6). At day 7, their tumors were excised, and the tumor weights were measured. Significant difference was tested by two-tailed t-test (vs Cont). The interaction between YS110 and gemcitabine used concomitantly was analyzed by two-way ANOVA.

YS110: humanized anti-CD26 antibody designed based on anti-CD26 mouse antibody 14D10; SEQ ID NO: 17 and 18
effect of YS110 on the cell growth inhibitory effect of pemetrexed (MESO1 cells [1]; 0.03, 0.3, or 1 μM pemetrexed and 0.1, 3, or 10 μg/ml YS110): potentiated | effect of YS110 on the cell growth inhibitory effect of cisplatin (MESO1 cells [1]; 0.3, 3, or 10 μM cisplatin and 0.1, 3, or 10 μg/ml YS110): potentiated | effect of YS110 on the cell growth inhibitory effect of cisplatin-pemetrexed (MESO1 cells [1]; YS110 10 μg/ml plus 0.3 μM cisplatin-0.1 μM pemetrexed): potentiated | effect of YS110 on the growth inhibitory effect of gemcitabine (MESO1 cells [1]; gemcitabine 10^−8, 3×10^−8, or 10^−7 M and YS110 1, 3, or 10 μg/ml): potentiated | effect of YS110 on the cell invasion inhibitory action of cisplatin-pemetrexed (MESO1 cells [2]): potentiated | effect of YS110 on the effect of gefitinib (tumor weight) (HCC4006 cells): potentiated | average body weight of the mice compared among the groups [3]: did not remarkably differ | effect of YS110 on the in vivo tumor growth inhibitory effect of cisplatin-pemetrexed (MESO1 cells [4]): potentiated | inhibitory effect (tumor weight) (H226): 34%

From patent US11273217B2, “Cancer treatment composition combining anti-CD26 antibody and other anticancer agent” (Y's AC Co., Ltd., priority 2015, dated 2022)
